Assay results published in patent US5288723A, “A composition and a method of using veratridine and epinephrine as a local anesthetic” (priority 1991, dated 1994).
Entries after “also recorded” stand apart in the source; their conditions may differ. Read-outs that look alike come from different tables or passages of the source.

Assays:
[1] = test system: Na^+ channel of the mammalian brain; conditions: purified polypeptides in phospholipid vesicles; cited from earlier work
[2] = test system: B-fibers of rabbit vagus nerve; assay: Extracellular recording of compound action potentials (APc), desheathed vagus nerve, B-fibers; parameters: species or system New Zealand white rabbit; conditions: for inhibition at 0.5 µM / activity at 0.5 µM: Oryctolagus cuniculus, 0.5 μM VTD; for inhibition at 0.5 µM: 70 min, 50 Hz, mean ± SEM; for activity at 0.5 µM: read-out: Amplitude of single APc elevation relative to amplitude at beginning of VTD exposure
Experimental: (§1) Adult male New Zealand white rabbits (3±0.5 kg) were pretreated intramuscularly with a mixture of ketamine (200 mg), xylazine (20 mg) and atropine (0.4 mg) for sedation. Ten minutes after this treatment, the animals were anesthetized with diethyl ether. After cessation of respiration, a longitudinal skin incision was made, and the cervical portion of both vagus nerves was dissected. The vagus nerves were temporarily stored at room temperature (22° C.) in a beaker containing modified HEPES Liley (HL) solution stirred constantly by aeration with a mixture of 95% oxygen and 5% carbon dioxide.
The modified HL solution used for bathing the nerve and subsequent drug perfusion consisted of (in mM): NaCl, 118.0; KCl, 5.0; CaCl2 2H2 0, 2.0; MgCl2 6H2 0, 1.0; α-D(+)-glucose, 11.0; NaHC03, 25.0; and N-2-hydroxy-ethylpiperazine-N-2-ethanesulfonic acid (HEPES) buffer, 5.0 mM. The pH was adjusted to 7.4±0.05 by addition of 1 N NaOH. The perfusion solution was bubbled with a gas mixture of 95% oxygen and 5% carbon dioxide at a vigorous rate just before flowing onto the nerve. The pH was stabilized by the HEPES buffer and maintained at 7.4.
VTD free base (no. V-5754, lot 58F-7828, Sigma, St. Louis, Mo.) was stored in a desiccator below 0° C. and was used to prepare a 2 mM stock solution in dimethyl sulfoxide [DMSO], Fisher Scientific, lot 861316), which also was stored at below 0° C. VTD, a steroidal alkaloid (FIG. 2A) that is produced by certain lilies, has a solubility limited to approximately 10^-3 M in aqueous slat solutions [Kupchan and By, "The Veratrum Group," in Alkaloids, Vol. 10, Manske, R.H.F. (ed.), New York, Academic Press (1968), pp. 193-285]. The stock VTD solution was diluted to final concentrations of 0.2-10 μM by the addition of HL. The maximum equivalent content of DMSO is 0.5%, and in three control experiments we detected no change in electrophysiologic behavior with 1% DMSO.
The nerves were cleaned and desheathed by microdissection before mounting in an airtight chamber (FIG. 2B) [Gissen et al., Anesthesiology 53:467-474 (1980)]. Petroleum jelly (White Petrolatum, Denison Laboratories) seals separated a central, 11-mm length of the nerve from the lateral pools, used for stimulating and recording with electrodes made of platinum wire. The central section of the chamber (volume 0.25 ml) was perfused with HL solution at 0.5 ml.min.^-1. The lateral pools containing the moistened ends of the nerves adsorbed to the electrodes were filled with paraffin oil. The APc s were propagated over 21 mm, from the stimulating to the recording electrodes, with the proximal recording electrodc located 4.5 mm from the edge of the central, drug exposure chamber. Thus, measured APc s were conducted in nerve exposed to drug for half of the conduction pathway, and had been conducting through drug-free medium over a distance containing at least two or three nodes of Ranvier (in the fastest-conducting fibers), before reaching the recording electrodes.
The signal from the nerve was amplified 50 times (model AK 475 operational amplifier, Metametrics, Carlisle, Mass.) and passed to the oscilloscope preamplifiers (model 5A 22N, Tektronix). The preparation was not considered acceptable unless the APc signals from the nerve exceeded 1.5 mV for A-fibers, 0.5 mV for B-fibers, and 0.3 mV for C-fibers.
Each nerve was exposed to only one VTD concentration, and each concentration was tested in four or five separate nerves, except in tie sheathed nerves, for which only two nerves were used. The temperature was 20°-22° C.
The standard protocol used for testing the action of VTD was to record the APc elevations in control HL solution for 30-60 min. before adding VTD; for 60-75 min. during VTD application; and for 60-75 min. after replacement with VTD-free HL. […]

rat sciatic nerve = assay: Motor block of rat sciatic nerve in vivo (toe curling and/or foot dragging); parameters: species or system Male Sprague-Dawley rats; conditions: for duration, MOTOR / onset, MOTOR: mean ± SEM
Experimental: Male Sprague-Dawley rats (200-250 g) were divided into 4 groups of 10 each. 0.1 ml of VTD alone at 0.2, 0.5 or 0.7 mM or vehicle (saline) was injected at the depression between the femoral head and the hip. The same animals were injected with VTD with epinephrine (EPI, 1:200,000) one week later, using the previously uninjected leg. Motor and sensory functions were rated by the respective monitoring of toe curling and/or foot dragging, and by testing the nocifensive withdrawal reflex to pinch of the foot pad of the injected hindlimb. Saline alone affected neither function.

[3] = test system: A-fibers of rabbit vagus nerve; assay: Sucrose-gap recording in the veratrinized region, A-fibers; parameters: species or system New Zealand white rabbit
Experimental: as §1, with “dioxide. […]” for “dioxide.”
(§2) VTD free base (no. V-5754, lot 58F-7828, Sigma, St. Louis, Mo.) was stored in a desiccator below 0° C. and was used to prepare a 2 mM stock solution in dimethyl sulfoxide [DMSO], Fisher Scientific, lot 861316), which also was stored at below 0° C. […] The maximum equivalent content of DMSO is 0.5%, and in three control experiments we detected no change in electrophysiologic behavior with 1% DMSO.
(§3) Nerves were desheathed and mounted in an acrylic sucrose-gap chamber (FIG. 2C). […] In contrast to the extracellular chamber described above, which measured APc in a drug-free segment after they had propagated through a VTD solution, the sucrose gap measured the behavior of the nerve membrane directly exposed to drug, the "veratrinized" nerve. […]

[4] = test system: B-fibers of rabbit vagus nerve; assay: Sucrose-gap recording in the veratrinized region, B-fibers; parameters: species or system New Zealand white rabbit; conditions: 0.5 μm VTD
Experimental: as §1, with “dioxide. […]” for “dioxide.”
as §2, §3

For `COc1ccc(C(=O)OC2CCC3(C)C4CCC5C6(O)CC(O)C7(O)C(CN8CC(C)CCC8C7(C)O)C6(O)CC53OC24O)cc1OC` (stereo not shown) [VTD, veratridine], the “Sodium flux into vesicles in response” value [1] is given as “sodium flux into these vesicles occurs”, the “Reversal of use-dependent effects on B-fibers by washing” value ([2]; 75 min. of washing with drug-free HL) is given as “not abolished completely” and the “Single-stimulus APc after VTD compared with no-VTD controls” value ([2]; B-fibers, 0.5 μM, 60 min. in VTD, P>0.05) is given as “no significant difference”. For the same compound, the “Reversal of use-dependent depression by washing” value ([2]; B-fibers, VTD-free HL wash) was “did not reverse”, the inhibition at 0.5 µM ([2]; B-fibers, after 70 min. in VTD, P < 0.001 vs control, read-out: Percent inhibition of the tenth APc in a train compared to the first, VTD) was 55 ± 2.8% and the inhibition at 0.5 µM ([2]; B-fibers, after 70 min. wash, read-out: Percent inhibition of the tenth APc in a train compared to the first, HL (Wash)) was 52.6 ± 3.7%. For the same compound, the activity at 0.5 µM ([2]; B-fibers, during VTD exposure) was 105 ± 23%, the activity at 0.5 µM ([2]; B-fibers, wash period) was 108 ± 31% and the “Onset of motor block (summary)” value (rat sciatic nerve; VTD alone, 0.2-0.7 mM) was 6 to 12 min. For the same compound, the “duration, MOTOR” value (rat sciatic nerve; [VTD] 0.2 mM, 0.1 ml) was 124 ± 19 min, the “fraction block, MOTOR” value (rat sciatic nerve; [VTD] 0.5 mM, 0.1 ml) was 10/10 and the “duration, MOTOR” value (rat sciatic nerve; [VTD] 0.5 mM, 0.1 ml) was 211 ± 31 min. The “onset, MOTOR” value (rat sciatic nerve; [VTD] 0.5 mM, 0.1 ml) was 10 ± 3 min, the “duration, MOTOR” value (rat sciatic nerve; [VTD] 0.7 mM, 0.1 ml) was 285 ± 39 min and the “onset, MOTOR” value (rat sciatic nerve; [VTD] 0.7 mM, 0.1 ml) was 6 ± 2 min. For the same compound, the “Motor function inhibition compared with bupivacaine and lidocaine” value (rat sciatic nerve; rat sciatic nerve) was “more potent and longer acting inhibitor of motor function than either bupivacaine or lidocaine; also recorded: more potent and longer-acting inhibitor of motor function than either bupivacaine or lidocaine”, the “A-fiber deflection between beginning and end of the train” value ([3]; 0.2 μM VTD, 0.5 Hz stimulation) was “unchanged” and the “A-fiber elevation after addition of VTD” value ([3]; 0.5 μm VTD) was “unchanged”. For the same compound, the “B-fiber elevation after addition of VTD” value [4] was “unchanged”.
